The values below come from US8586588B2, “Aryl pyridazinone derivatives and their use as H3 receptor ligands” (Cephalon, Inc., priority 2006, dated 2013).

Where a name gives a salt, the structure may show the parent alone. Bounds are passed on as bounds.

`C[C@@H]1CCCN1CCCOc1ccc(-c2ccc(=O)n(-c3ccccc3)n2)cc1` (as salt: HCl) [Example 20, 6-{4-[3-((R)-2-Methyl-pyrrolidin-1-yl)-propoxy]-phenyl}-2-phenyl-2H-pyridazin-3-one]: the melting point (commonly the temperature, or range, at which the solid turns liquid) is 82 to 86 °C.
Under `CC1CCC(C)N1CCCOc1ccc(-c2nn(C(C)C)c(=O)c3ccsc23)cc1` (stereo not drawn) (as salt: HCl) [Example 23, 7-{4-[3-(2,5-Dimethyl-pyrrolidin-1-yl)-propoxy]-phenyl}-5-isopropyl-5H-thieno[2,3-d]pyridazin-4-one] stands 158 to 159 °C; under `CC(C)n1nc(-c2ccc(OCCCN3CCCCC3)cc2)c2sccc2c1=O` (as salt: HCl) [Example 24, 5-Isopropyl-7-[4-(3-piperidin-1-yl-propoxy)-phenyl]-5H-thieno[2,3-d]pyridazin-4-one], 195 to 196 °C; under `CC(C)n1nc(-c2ccc(OCCCN3CCCC(C)(C)C3)cc2)c2sccc2c1=O` (as salt: HCl) [Example 25, 7-{4-[3-(3,3-Dimethyl-piperidin-1-yl)-propoxy]-phenyl}-5-isopropyl-5H-thieno[2,3-d]pyridazin-4-one], 100 to 102 °C.
The figure for `COC[C@@H]1CCCN1CCCOc1ccc(-c2nn(C(C)C)c(=O)c3ccsc23)cc1` (as salt: HCl) [Example 26, 5-Isopropyl-7-{4-[3-((S)-2-methoxymethyl-pyrrolidin-1-yl)propoxy]-phenyl}-5H-thieno[2,3-d]pyridazin-4-one] is 83 °C (dec.).
With `CCN(CC)CCCOc1ccc(-c2nn(C(C)C)c(=O)c3ccsc23)cc1` (as salt: HCl) [Example 28, 7-[4-(3-Diethylamino-propoxy)-phenyl]-5-isopropyl-5H-thieno[2,3-d]pyridazin-4-one], the melting point lay within 188 to 190 °C.
Under `CC(C)n1nc(-c2ccc(OCCCN3CCCC3)cc2)c2sccc2c1=O` (as salt: HCl) [Example 29, 5-Isopropyl-7-[4-(3-pyrrolidin-1-yl-propoxy)-phenyl]-5H-thieno[2,3-d]-pyridazin-4-one] stands 144 °C; under `CC(C)n1nc(-c2ccc(OCCCN3CCC(N4CCCC4)CC3)cc2)c2sccc2c1=O` (as salt: HCl) [Example 30, 5-Isopropyl-7-{4-[3-(4-pyrrolidin-1-yl-piperidin-1-yl)-propoxy]-phenyl}-5H-thieno[2,3-d]pyridazin-4-one], 283 °C (dec.).
Under `CC(C)n1nc(-c2ccc(OCCCN3[C@H](C)CC[C@H]3C)cc2)c2sccc2c1=O` (as salt: HCl) [Example 31, 7-{4-[3-((2R,5R)-2,5-Dimethyl-pyrrolidin-1-yl)-propoxy]-phenyl}-5-isopropyl-5H-thieno[2,3-d]pyridazin-4-one] stands 106 °C (dec.).
Under `CCCn1nc(-c2ccc(OCCCN3CCC[C@H]3C)cc2)c2sccc2c1=O` (as salt: HCl) [Example 32, 7-{4-[3-((R)-2-Methyl-pyrrolidin-1-yl)-propoxy]phenyl}-5-propyl-5H-thieno[2,3-d]pyridazin-4-one] stands 151 to 153 °C; under `CCCn1nc(-c2ccc(OCCCN3[C@H](C)CC[C@H]3C)cc2)c2sccc2c1=O` (as salt: HCl) [Example 33, 7-{4-[3-((2R,5R)-2,5-Dimethyl-pyrrolidin-1-yl)-propoxy]-phenyl)-5-propyl-5H-thieno[2,3-d]pyridazin-4-one], 84 °C (dec.).
Regarding `CCCn1nc(-c2ccc(OCCCN3CCC(C)CC3)cc2)c2sccc2c1=O` (as salt: HCl) [Example 34, 7-{4-[3-(4-Methyl-piperidin-1-yl)-propoxy]-phenyl}-5-propyl-5H-thieno[2,3-d]pyridazin-4-one], the melting point lay in the range of 168 to 170 °C.
The figure for `CCCn1nc(-c2ccc(OCCCN3CCC(N(C)C)CC3)cc2)c2sccc2c1=O` (as salt: HCl) [Example 35, 7-{4-[3-(4-Dimethylamino-piperidin-1-yl)-propoxy]-phenyl}-5-propyl-5H-thieno[2,3-d]pyridazin-4-one] is 207 to 209 °C; for `CCCn1nc(-c2ccc(OCCCN3CCC[C@H]3CN3CCCC3)cc2)c2sccc2c1=O` (as salt: HCl) [Example 36, 5-Propyl-7-{4-[3-((S)-2-pyrrolidin-1-ylmethyl-pyrrolidin-1-yl)-propoxy]-phenyl}-5H-thieno[2,3-d]pyridazin-4-one] it is 123 °C (dec.).
Under `O=c1c2ccsc2c(-c2ccc(OCCCN3CCCCC3)cc2)nn1Cc1ccc(Cl)cc1` (as salt: HCl) [Example 37, 5-(4-Chloro-benzyl)-7-[4-(3-piperidin-1-yl-propoxy)-phenyl]-5H-thieno[2,3-d]pyridazin-4-one] stands 227 to 229 °C; under `C[C@@H]1CCCN1CCCOc1ccc(-c2nn(Cc3ccc(Cl)cc3)c(=O)c3ccsc23)cc1` (as salt: HCl) [Example 38, 5-(4-Chloro-benzyl)-7-{4-[3-((R)-2-methyl-pyrrolidin-1-yl)-propoxy]-phenyl}-5H-thieno[2,3-d]pyridazin-4-one], 223 to 224 °C.
The figure for `Cc1cc(-c2ccc(OCCCN3CCC[C@H]3C)cc2)nn(C)c1=O` (as salt: HCl) [Example 40, 2,4-Dimethyl-6-{4-[3-((R)-2-methyl-pyrrolidin-1-yl)-propoxy]-phenyl}-2H-pyridazin-3-one] is 175 to 176 °C.
For `Cc1cc(-c2ccc(OCCCN3CCCCC3)cc2)nn(C(C)C)c1=O` (as salt: HCl) [Example 42, 2-Isopropyl-4-methyl-6-[4-(3-piperidin-1-yl-propoxy)-phenyl]-2H-pyridazin-3-one], the melting point lay in the range of 197 to 198 °C.
The compound `Cc1cc(-c2ccc(OCCCN3CCC[C@H]3C)cc2)nn(Cc2ccccc2)c1=O` (as salt: HCl) [Example 43, 2-Benzyl-4-methyl-6-{4-[3-((R)-2-methyl-pyrrolidin-1-yl)-propoxy]-phenyl}-2H-pyridazin-3-one] registered a melting point of 190 to 192 °C.
On to `Cc1cc(-c2ccc(OCCCN3CCCCC3)cc2)nn(Cc2ccccc2)c1=O` (as salt: HCl) [Example 44, 2-Benzyl-4-methyl-6-[4-(3-piperidin-1-yl-propoxy)-phenyl]-2H-pyridazin-3-one], for which the melting point lay in the range of 232 to 233 °C.
Under `C[C@@H]1CCCN1CCCOc1ccc(-c2cc(Cc3ccccc3)c(=O)n(C)n2)cc1` (as salt: HCl) [Example 45, 4-Benzyl-2-methyl-6-{4-[3-((R)-2-methyl-pyrrolidin-1-yl)-propoxy]-phenyl}-2H-pyridazin-3-one] stands 232 to 233 °C.
`Cn1nc(-c2ccc(OCCCN3CCCCC3)cc2)cc(Cc2ccccc2)c1=O` (as salt: HCl) [Example 46, 4-Benzyl-2-methyl-6-[4-(3-piperidin-1-yl-propoxy)-phenyl]-2H-pyridazin-3-one] had a melting point of 186 to 187 °C.
Under `C[C@@H]1CCCN1CCCOc1ccc(-c2nn(C)c(=O)cc2-c2ccccc2)cc1` (as salt: HCl) [Example 47, 2-Methyl-6-{4-[3-((R)-2-methyl-pyrrolidin-1-yl)-propoxy]-phenyl}-5-phenyl-2H-pyridazin-3-one] stands 207 to 209 °C.
The figure for `Cn1nc(-c2ccc(OCCCN3CCCCC3)cc2)c(-c2ccccc2)cc1=O` (as salt: HCl) [Example 48, 2-Methyl-5-phenyl-6-[4-(3-piperidin-1-yl-propoxy)-phenyl]-2H-pyridazin-3-one] is 212 to 214 °C.
Under `C[C@@H]1CCCN1CCCOc1ccc(-c2nn(C)c(=O)c3ccccc23)cc1` (as salt: HCl) [Example 49, 2-Methyl-4-{4-[3-((R)-2-methyl-pyrrolidin-1-yl)-propoxy]-phenyl}-2H-phthalazin-1-one] stands 216 to 217 °C; under `Cn1nc(-c2ccc(OCCN3CCCCC3)cc2)c2ccccc2c1=O` (as salt: HCl) [Example 51, 2-Methyl-4-[4-(2-piperidin-1-yl-ethoxy)-phenyl]-2H-phthalazin-1-one], 253 to 254 °C.
`Cn1nc(-c2ccc(OCCCN3CCCC3)cc2)c2ccccc2c1=O` (as salt: HCl) [Example 52, 2-Methyl-4-[4-(3-pyrrolidin-1-yl-propoxy)-phenyl]-2H-phthalazin-1-one] came in with a melting point of 201 to 203 °C.
Under `Cn1nc(-c2ccc(OCCCN3CCCCCC3)cc2)c2ccccc2c1=O` (as salt: HCl) [Example 53, 4-[4-(3-Azepan-1-yl-propoxy)-phenyl]-2-methyl-2H-phthalazin-1-one] stands 238 to 240 °C.
Under `C[C@@H]1CCCN1CCCOc1ccc(-c2nn(Cc3ccc(Cl)cc3)c(=O)c3ccccc23)cc1` (as salt: HCl) [Example 54, 2-(4-Chloro-benzyl)-4-{4-[3-((R)-2-methyl-pyrrolidin-1-yl)-propoxy]-phenyl}-2H-phthalazin-1-one] stands 217 to 218 °C.
The figure for `O=c1c2ccccc2c(-c2ccc(OCCCN3CCCCC3)cc2)nn1Cc1ccc(Cl)cc1` (as salt: HCl) [Example 55, 2-(4-Chloro-benzyl)-4-[4-(3-piperidin-1-yl-propoxy)-phenyl]-2H-phthalazin-1-one] is 216 to 217 °C.
The compound `Cn1nc(-c2ccc(OCCCN3CCCCC3)cc2)c2c(c1=O)CCC2` (as salt: HCl) [Example 57, 2-Methyl-4-[4-(3-piperidin-1-yl-propoxy)-phenyl]-2,5,6,7-tetrahydro-cyclopenta[d]pyridazin-1-one] registered a melting point of 214 to 216 °C.
Under `C[C@@H]1CCCN1CCCOc1ccc(C2=NN(C)C(=O)C3CCCC23)cc1` (stereo partly drawn) (as salt: HCl) [Example 58, 2-Methyl-4-{4-[3-((R)-2-methyl-pyrrolidin-1-yl)-propoxy]-phenyl}-2,4a,5,6,7,7a-hexahydro-cyclopenta[d]pyridazin-1-one] stands below 50 °C.
Under `CN1N=C(c2ccc(OCCCN3CCCCC3)cc2)C2CCCC2C1=O` (stereo not drawn) (as salt: HCl) [Example 59, 2-Methyl-4-[4-(3-piperidin-1-yl-propoxy)-phenyl]-2,4a,5,6,7,7a-hexahydro-cyclopenta[d]pyridazin-1-one] stands below 50 °C.
